Source: publication PMC6323060, “Expression in eukaryotic cells and purification of synthetic gene encoding enterocin P: a bacteriocin with broad antimicrobial spectrum” (AMB Express, 2019)
≈ marks a conversion by molar mass, not a printed value. Ends that are not written are not given here.

Key:
Salmonella typhi = assay: MIC, broth micro-dilution (CLSI); format: cell-based; details: Salmonella typhi clinical isolate, MHB, approx. 5 × 10^5 CFU/ml, overnight 37 °C, triplicate; for MIC: Salmonella enterica, read-out: Antimicrobial activity MIC
Salmonella paratyphi C = assay: MIC, broth micro-dilution (CLSI); format: cell-based; details: Salmonella enterica, read-out: Antimicrobial activity MIC
Shigella dysenteriae = assay: MIC, broth micro-dilution (CLSI); format: cell-based; details: for MIC: Shigella dysenteriae, read-out: Antimicrobial activity MIC
[1] = test system: Staphylococcus aureus ATCC 25923; assay: MIC, broth micro-dilution (CLSI); details: for MIC: Staphylococcus aureus, ATCC25923, read-out: Antimicrobial activity MIC
[2] = test system: Staphylococcus aureus ATCC 29213; assay: MIC, broth micro-dilution (CLSI); details: for MIC: Staphylococcus aureus, ATCC29213, read-out: Antimicrobial activity MIC
[3] = test system: Enterococcus faecalis ATCC 29212; assay: MIC, broth micro-dilution (CLSI); details: for MIC: Enterococcus faecalis, ATCC29212, read-out: Antimicrobial activity MIC
Listeria monocytogenes = assay: MIC, broth micro-dilution (CLSI); details: for MIC: Listeria monocytogenes, read-out: Antimicrobial activity MIC
E. coli ATCC 25922 = assay: MIC, broth micro-dilution (CLSI); details: Escherichia coli, ATCC25922, read-out: Antimicrobial activity MIC
[4] = test system: Pseudomonas aeruginosa ATCC 27853; assay: MIC, broth micro-dilution (CLSI); details: for MIC: Pseudomonas aeruginosa, ATCC27853, read-out: Antimicrobial activity MIC
MRSA ATCC 33591 = assay: MIC, broth micro-dilution (CLSI); details: for MIC: Staphylococcus aureus, read-out: Antimicrobial activity MIC
VRE = assay: MIC, broth micro-dilution (CLSI); details: for MIC: Enterococcus, VRE, read-out: Antimicrobial activity MIC
[5] = test system: Pseudomonas aeruginosa VIM+; assay: MIC, broth micro-dilution (CLSI); details: for MIC: Pseudomonas aeruginosa, read-out: Antimicrobial activity MIC
[6] = test system: Acinetobacter baumannii ATCC 13304; assay: MIC, broth micro-dilution (CLSI); details: ATCC13304, read-out: Antimicrobial activity MIC
[7] = test system: Klebsiella pneumonia ATCC 700603; assay: MIC, broth micro-dilution (CLSI); details: for MIC: Klebsiella pneumoniae, ATCC700603, read-out: Antimicrobial activity MIC
E. coli (ATCC 25922) [8] = assay: Effect of salt (NaCl) on antimicrobial activity; format: cell-based, Escherichia coli; parameters: key: +: presence of activity; −: absence of activity; details: 4 h, CFU counted after 24 h at 37 °C, triplicate
Description: (§1) To investigate the activities of the EntP peptide in the presence of high salt concentrations, the MIC was determined as described above, except that fixed concentration of NaCl was added to each well of the microtiter plate. Overnight cultures of S. aureus (ATCC 25923) and E. coli (ATCC 25922) as Gram-positive and Gram-negative model strains were incubated in MHB with 0, 50, 100, or 150 mM NaCl for 4 h. Bacteria were serially diluted and plated in triplicate on Trypticase soy agar (HiMedia, India) plates. CFUs were counted after 24 h of incubation at 37 °C. The stability of EntP peptide in 50% human plasma was evaluated as previously described (Hou et al. [2011]). The human plasma was determined to contain no antimicrobial activity before the test. Then 800 μg/ml of recombinant EntP peptide was diluted 1:1 with fresh human plasma and incubated at 37 °C for 0, 3, or 6 h. After incubation, the antimicrobial activity of each sample was determined by MIC assays with S. aureus (ATCC 25923) and E. coli (ATCC 25922).

S. aureus (ATCC 25923) [9] = assay: Effect of salt (NaCl) on antimicrobial activity; format: cell-based, Staphylococcus aureus; parameters: key: +: presence of activity; −: absence of activity; details: 4 h, CFU counted after 24 h at 37 °C, triplicate
Description: as §1

E. coli (ATCC 25922) [10] = assay: Stability in 50% human plasma, read out as antimicrobial activity (MIC assay); format: in vitro ADME, Escherichia coli; parameters: key: +: presence of activity; −: absence of activity; details: 800 μg/ml peptide diluted 1:1 with fresh human plasma (50%), 37 °C
Description: as §1

S. aureus (ATCC 25923) [11] = assay: as above; format: in vitro ADME, Staphylococcus aureus; parameters: key: +: presence of activity; −: absence of activity; details: 800 μg/ml peptide diluted 1:1 with fresh human plasma (50%), 37 °C
Description: as §1

[12] = test system: S. aureus (ATCC 25923) and E. coli (ATCC 25922); assay: Antimicrobial activity in 50% human plasma, overall statement; format: in vitro ADME; details: 37 °C, 0, 3 or 6 h, read-out MIC assay
Description: as §1

CC(C)(O/N=C(\C(=O)N[C@@H]1C(=O)N2C(C(=O)[O-])=C(C[n+]3ccccc3)CS[C@H]12)c1csc(N)n1)C(=O)O [Ceftazidime]
MIC (Salmonella typhi): 4 µg/mL (≈ 7.32 µM)
MIC (Salmonella paratyphi C): 4 µg/mL (≈ 7.32 µM)
MIC (Shigella dysenteriae): ≤ 2 µg/mL
MIC [1]: ≤ 2 µg/mL
MIC [2]: ≤ 2 µg/mL
MIC [3]: ≤ 4 µg/mL
MIC (Listeria monocytogenes): ≤ 4 µg/mL
MIC (E. coli ATCC 25922): ≤ 2 µg/mL
MIC [4]: 2 µg/mL (≈ 3.66 µM)
MIC (MRSA ATCC 33591): 16 µg/mL (≈ 29.3 µM)
MIC (VRE): 32 µg/mL (≈ 58.5 µM)
MIC [5]: ≥ 32 µg/mL
MIC [6]: ≥ 32 µg/mL
MIC [7]: ≥ 16 µg/mL

enterocin P (ATRSYGNGVYCNNSKCWVNWGEAKENIAGIVISGWASGLAGMGH-{H2N-H2N-H2N-H2N-H2N-H2N}; ends and bridges not checked; UniProt O30434 28-71, looked up) [EntP]
Antimicrobial activity MIC (Salmonella typhi): 16 µg/mL
Antimicrobial activity MIC (Shigella dysenteriae; Shigella dysenteriae clinical isolate, broth micro-dilution (CLSI), MHB, approx. 5 × 10^5 CFU/ml, overnight 37 °C, triplicate): 128 µg/mL
Activity after treatment with salt (E. coli (ATCC 25922) [8]; 0 mM NaCl in MHB): +
Activity after treatment with salt (E. coli (ATCC 25922) [8]; 50 mM NaCl in MHB): +
Activity after treatment with salt (E. coli (ATCC 25922) [8]; 100 mM NaCl in MHB): +
Activity after treatment with salt (E. coli (ATCC 25922) [8]; 150 mM NaCl in MHB): −
Activity after treatment with salt (S. aureus (ATCC 25923) [9]; 0 mM NaCl in MHB): +
Activity after treatment with salt (S. aureus (ATCC 25923) [9]; 50 mM NaCl in MHB): +
Activity after treatment with salt (S. aureus (ATCC 25923) [9]; 100 mM NaCl in MHB): +
Activity after treatment with salt (S. aureus (ATCC 25923) [9]; 150 mM NaCl in MHB): −
Activity after treatment with plasma (E. coli (ATCC 25922) [10]; 0 h): +
Activity after treatment with plasma (E. coli (ATCC 25922) [10]; 3 h): +
Activity after treatment with plasma (E. coli (ATCC 25922) [10]; 6 h): +
Activity after treatment with plasma (S. aureus (ATCC 25923) [11]; 0 h): +
Activity after treatment with plasma (S. aureus (ATCC 25923) [11]; 3 h): +
Activity after treatment with plasma (S. aureus (ATCC 25923) [11]; 6 h): +
Antimicrobial activity in 50% human plasma compared with PBS [12]: not significantly different from that in PBS
Antimicrobial activity MIC ([1]; Staphylococcus aureus ATCC 25923, broth micro-dilution (CLSI), MHB, approx. 5 × 10^5 CFU/ml, overnight 37 °C, triplicate): 8 µg/mL
Antimicrobial activity MIC ([2]; Staphylococcus aureus ATCC 29213, broth micro-dilution (CLSI), MHB, approx. 5 × 10^5 CFU/ml, overnight 37 °C, triplicate): 8 µg/mL
Antimicrobial activity MIC ([3]; Enterococcus faecalis ATCC 29212, broth micro-dilution (CLSI), MHB, approx. 5 × 10^5 CFU/ml, overnight 37 °C, triplicate): 16 µg/mL
Antimicrobial activity MIC (Listeria monocytogenes; Listeria monocytogenes clinical isolate, broth micro-dilution (CLSI), MHB, approx. 5 × 10^5 CFU/ml, overnight 37 °C, triplicate): 32 µg/mL
Antimicrobial activity MIC ([4]; Pseudomonas aeruginosa ATCC 27853, broth micro-dilution (CLSI), MHB, approx. 5 × 10^5 CFU/ml, overnight 37 °C, triplicate): 8 µg/mL
Antimicrobial activity MIC (MRSA ATCC 33591; MRSA ATCC 33591 (resistant strain), broth micro-dilution (CLSI), MHB, approx. 5 × 10^5 CFU/ml, overnight 37 °C, triplicate): 64 µg/mL
Antimicrobial activity MIC (VRE; VRE clinical isolate (resistant strain), broth micro-dilution (CLSI), MHB, approx. 5 × 10^5 CFU/ml, overnight 37 °C, triplicate): 64 µg/mL
Antimicrobial activity MIC ([5]; Pseudomonas aeruginosa VIM+ (resistant strain), broth micro-dilution (CLSI), MHB, approx. 5 × 10^5 CFU/ml, overnight 37 °C, triplicate): 256 µg/mL
Antimicrobial activity MIC ([7]; Klebsiella pneumonia ATCC 700603 (resistant strain), broth micro-dilution (CLSI), MHB, approx. 5 × 10^5 CFU/ml, overnight 37 °C, triplicate): 8 µg/mL

CC1(C)S[C@@H]2[C@H](NC(=O)[C@H](N)c3ccccc3)C(=O)N2[C@H]1C(=O)O [Ampicillin]
MIC (Salmonella typhi): 2 µg/mL (≈ 5.72 µM)
MIC (Salmonella paratyphi C): 2 µg/mL (≈ 5.72 µM)
MIC (Shigella dysenteriae): 4 µg/mL (≈ 11.4 µM)
MIC [1]: ≤ 1 µg/mL
MIC [2]: ≤ 1 µg/mL
MIC [3]: ≤ 1 µg/mL
MIC (Listeria monocytogenes): 2 µg/mL (≈ 5.72 µM)
MIC (E. coli ATCC 25922): ≤ 2 µg/mL
MIC [7]: > 128 µg/mL

CN[C@H](CC(C)C)C(=O)N[C@H]1C(=O)N[C@@H](CC(N)=O)C(=O)N[C@H]2C(=O)N[C@H]3C(=O)N[C@H](C(=O)N[C@H](C(=O)O)c4cc(O)cc(O)c4-c4cc3ccc4O)[C@H](O)c3ccc(c(Cl)c3)Oc3cc2cc(c3O[C@@H]2O[C@H](CO)[C@@H](O)[C@H](O)[C@H]2O[C@H]2C[C@](C)(N)[C@H](O)[C@H](C)O2)Oc2ccc(cc2Cl)[C@H]1O [Vancomycin]
MIC [1]: ≤ 1 µg/mL
MIC [2]: ≤ 1 µg/mL
MIC [3]: ≤ 1 µg/mL
MIC (Listeria monocytogenes): 1 µg/mL (≈ 0.69 µM)
MIC (MRSA ATCC 33591): ≥ 16 µg/mL
MIC (VRE): ≥ 32 µg/mL

CCN1CCN(C(=O)N[C@@H](C(=O)N[C@@H]2C(=O)N3[C@@H]2SC(C)(C)[C@@H]3C(=O)O)c2ccccc2)C(=O)C1=O [Piperacillin]
MIC (Salmonella typhi): 4 µg/mL (≈ 7.73 µM)
MIC (Salmonella paratyphi C): ≤ 8 µg/mL
MIC (Shigella dysenteriae): 4 µg/mL (≈ 7.73 µM)
MIC (Listeria monocytogenes): 4 µg/mL (≈ 7.73 µM)
MIC (E. coli ATCC 25922): ≤ 8 µg/mL
MIC [4]: ≤ 8 µg/mL
MIC [5]: ≥ 128 µg/mL
MIC [6]: ≥ 64 µg/mL
MIC [7]: ≥ 128 µg/mL

CNC(C)C1CCC(N)C(OC2C(N)CC(N)C(OC3OCC(C)(O)C(NC)C3O)C2O)O1 (stereo not drawn) [Gentamicin]
MIC (Salmonella typhi): ≤ 2 µg/mL
MIC (Salmonella paratyphi C): ≤ 1 µg/mL
MIC (Shigella dysenteriae): 4 µg/mL (≈ 8.38 µM)
MIC [1]: ≤ 1 µg/mL
MIC [2]: ≤ 1 µg/mL
MIC [3]: ≤ 1 µg/mL
MIC (Listeria monocytogenes): 8 µg/mL (≈ 16.8 µM)
MIC (E. coli ATCC 25922): ≤ 1 µg/mL
MIC [4]: ≤ 16 µg/mL
MIC (MRSA ATCC 33591): ≥ 16 µg/mL
MIC (VRE): ≥ 16 µg/mL
MIC [5]: ≥ 16 µg/mL
MIC [6]: ≥ 16 µg/mL
MIC [7]: ≥ 16 µg/mL
